Results published in patent US20020193425A1, “Cancer chemopreventative compounds and compositions and methods of treating cancers” (priority 2001, published 2002).
≈ marks a conversion by molar mass, not a printed value.

How the values were obtained:
Assay type in all cases: cell-based
c-Myc oncoprotein, BV173 = assay: c-Myc oncoprotein expression, western blotting
Protocol: (§1) The expression of c-Myc was assessed by immunoblots as previously described. In brief, cells (10^6) were treated and harvested at various time intervals, and whole-cell pellets were lysed with detergent lysis buffer (1 ml/10^7 cells, 50 mM Tris-HCl buffer, pH 8.0, 150 mM NaCl, 1 mM DTT, 0.5 mM EDTA, 1% Nonidet® P40, 0.5% sodium deoxycholate, 0.1% sodium dodecylsulfate, 100 μg/ml phenylmethylsulfonyl fluoride, 1 μg/ml aprotinin, 2 μg/ml leupeptin and 100 μM sodium vanadate) to obtain protein lysates. Protein concentrations were quantified using a bicinchoninic acid kit. Since c-Myc is a labile protein, cell lysates were not frozen, but stored at 4° C., until all protein lysates were prepared for a particular cell line, and then western blots were performed immediately. Total protein ([…]) was separated by 10% SDS-PAGE, electroblotted to PVDF membranes, and blocked overnight with 5% nonfat dry milk. The membrane was incubated with a solution of the primary antibody (2.5 μg/ml), prepared in 1% blocking solution, for 2 h at room temperature, washed three-times for 15 min with PBS-T (PBS with 0.1%, v/v, Tween 20), and incubated with a 1:2500 dilution of horseradish peroxidase-conjugated secondary antibody for 30 min at 37° C. Blots were again washed three-times for 10 min each in PBS-T and developed by enhanced chemiluminescence (Amersham). Membranes were exposed to Kodak Biomax film and the resulting film was analyzed using Kodak 1D Image Analysis software. Membranes were then stripped and reprobed for the quantification of bactin.
(§2) Cells were treated with solvent (0.1% v/v DMSO, control), brusatol (25 ng/ml) or bruceantin (10 ng/ml) for 4 or 24 h, then analyzed by western blotting. Membranes were probed for c-Myc, and then stripped and probed for β-actin as an internal control.
(§3) Cells were treated with brusatol (25 ng/ml) or bruceantin (10 ng/ml) for 4 or 24 h, and then analyzed for c-Myc and β-actin expression using western blotting techniques. Results are expressed as percentage of c-Myc oncoprotein of control (0.1%, v/v, DMSO treated cells) values. Results were normalized relative to β-actin.

c-Myc oncoprotein, U937 = assay: c-Myc oncoprotein expression, western blotting
Protocol: as §1, §2, §3

[1] = system: c-Myc oncoprotein, SUPB13; assay: c-Myc oncoprotein expression, western blotting
Protocol: as §1, §2, §3

[2] = system: c-Myc oncoprotein, Kasumi-1; assay: c-Myc oncoprotein expression, western blotting
Protocol: as §1, §2, §3

c-Myc oncoprotein, Reh = assay: c-Myc oncoprotein expression, western blotting
Protocol: as §1, §2, §3

[3] = system: c-Myc oncoprotein, RS4;11; assay: c-Myc oncoprotein expression, western blotting
Protocol: as §1, §2, §3

c-Myc oncoprotein, NB4 = assay: c-Myc oncoprotein expression, western blotting
Protocol: as §1, §2, §3

c-Myc oncoprotein, Daudi = assay: c-Myc oncoprotein expression, western blotting
Protocol: as §1, §2, §3

c-Myc oncoprotein, K562 = assay: c-Myc oncoprotein expression, western blotting
Protocol: as §1, §2, §3

[4] = system: DMBA-induced preneoplastic lesion formation in mouse mammary organ culture; assay: Inhibition of DMBA-induced preneoplastic lesion formation in mouse mammary organ culture (MMOC); details: Mus musculus; quassinoid (2 μM); in comparison with a DMBA control
Protocol: The identification of potential inhibitors of DMBA-induced preneoplastic lesion formation in mammary organ culture has been described previously. Briefly, four-week old BALB/c female mice (Charles River) were pretreated for nine days with 1 μg estradiol and 1 mg progesterone. The thoracic pair of mammary glands was dissected on silk and incubated with growth-promoting hormones in the presence of test compounds (2 μM) for 10 days. DMBA ([…]) was included in the medium (containing […]) for 24 hours on the third day of culture to induce preneoplastic mammary lesions. Following 10 days of growth promoting phase, all hormones except insulin were withdrawn and the glands were allowed to regress to lobuloalveolar structures during a 14-day incubation period. Glands then were fixed in 10% buffered formalin and stained with alum carmine. Incidence of lesion formation (percentage of glands per group with mammary lesions) was recorded, and percent inhibition was calculated by comparison with the DMBA control group that was not treated with test sample. Active samples induce 60% inhibition, based on historical controls.

Kasumi-1 = assay: Antiproliferative activity, [3H]thymidine incorporation; details: Homo sapiens, 96 h, four days, read-out: Antiproliferative Activity (IC50, ng/ml)
Protocol: (§4) Cellular viability was monitored by Trypan blue exclusion.
(§5) ^bproliferation was assayed by [^3H]thymidine incorporation with quadruplicate samples, as described under “Materials and methods”.

RS4;11 = assay: as above; details: Homo sapiens, 96 h, four days, read-out: Antiproliferative Activity (IC50, ng/ml)
Protocol: as §4, §5

SUPB13 = assay: as above; details: 96 h, four days, read-out: Antiproliferative Activity (IC50, ng/ml)
Protocol: as §4, §5

Daudi = assay: as above; details: four days
Protocol: as §4, §5

NB4 = assay: as above; details: four days
Protocol: as §4, §5

HL-60 = assay: as above; details: Homo sapiens, 96 h, four days, read-out: Antiproliferative Activity (IC50, ng/ml)
Protocol: as §4, §5

Reh = assay: as above; details: Homo sapiens, 96 h, four days, read-out: Antiproliferative Activity (IC50, ng/ml)
Protocol: as §4, §5

[5] = system: Peripheral Human Lymphocytes; assay: as above; details: Lymphocyte, 72 h, three days, concanavalin A (0.4 μg/ml), read-out: Antiproliferative Activity (IC50, ng/ml)
Protocol: as §4, §5

K562 = assay: as above; details: Homo sapiens, 96 h, four days, read-out: Antiproliferative Activity (IC50, ng/ml)
Protocol: as §4, §5

BV173 = assay: as above; details: four days
Protocol: as §4, §5

DHL-6 = assay: as above; details: four days
Protocol: as §4, §5

U937 = assay: as above; details: four days
Protocol: as §4, §5

Q: What does the source list for `COC(=O)[C@@]12OC[C@]34[C@H]([C@@H](O)[C@@H]1O)[C@@]1(C)CC(=O)C(O)=C(C)[C@@H]1C[C@H]3OC(=O)[C@H](OC(=O)C=C(C)C)[C@@H]24` [compound 1, brusatol]?
A: c-Myc oncoprotein, percentage of control (c-Myc oncoprotein, BV173; Brusatol (25 ng/ml), 4 h): 22%; c-Myc oncoprotein, percentage of control (c-Myc oncoprotein, BV173; Brusatol (25 ng/ml), 24 h): 41%; c-Myc oncoprotein, percentage of control (c-Myc oncoprotein, U937; Brusatol (25 ng/ml), 4 h): 5%; c-Myc oncoprotein, percentage of control (c-Myc oncoprotein, U937; Brusatol (25 ng/ml), 24 h): 12%; c-Myc oncoprotein, percentage of control ([1]; Brusatol (25 ng/ml), 4 h): 52%; c-Myc oncoprotein, percentage of control ([1]; Brusatol (25 ng/ml), 24 h): 41%; c-Myc oncoprotein, percentage of control ([2]; Brusatol (25 ng/ml), 4 h): 66%; c-Myc oncoprotein, percentage of control ([2]; Brusatol (25 ng/ml), 24 h): 112%; c-Myc oncoprotein, percentage of control (c-Myc oncoprotein, Reh; Brusatol (25 ng/ml), 4 h): 66%; c-Myc oncoprotein, percentage of control (c-Myc oncoprotein, Reh; Brusatol (25 ng/ml), 24 h): 32%; c-Myc oncoprotein, percentage of control ([3]; RS4,11, Brusatol (25 ng/ml), 24 h): 10%; c-Myc oncoprotein, percentage of control ([3]; RS4;11, Brusatol (25 ng/ml), 4 h): 20%; c-Myc oncoprotein, percentage of control (c-Myc oncoprotein, NB4; Brusatol (25 ng/ml), 4 h): 0%; c-Myc oncoprotein, percentage of control (c-Myc oncoprotein, NB4; Brusatol (25 ng/ml), 24 h): 0%; c-Myc oncoprotein, percentage of control (c-Myc oncoprotein, Daudi; Brusatol (25 ng/ml), 4 h): 79%; c-Myc oncoprotein, percentage of control (c-Myc oncoprotein, Daudi; Brusatol (25 ng/ml), 24 h): 10%; decrease of c-Myc protein levels (c-Myc oncoprotein, K562; 4 h treatment): 94%; c-Myc oncoprotein, percentage of control (c-Myc oncoprotein, K562; Brusatol (25 ng/ml), 4 h): 6%; c-Myc oncoprotein, percentage of control (c-Myc oncoprotein, K562; Brusatol (25 ng/ml), 24 h): 13%; inhibition at 2 µM [4]: 70%; IC50 (Kasumi-1): 7 ± 0.6 ng/mL (≈ 0.0134 µM); IC50 (RS4;11): 12.5 ± 0.6 ng/mL (≈ 0.024 µM); IC50 (SUPB13): 37 ± 1.9 ng/mL (≈ 0.0711 µM); Antiproliferative Activity (IC50, ng/ml) (Daudi): No effect; Antiproliferative Activity (IC50, ng/ml) (NB4): No effect; IC50 (HL-60): 25 ± 0.5 ng/mL (≈ 0.048 µM); IC50 (Reh): 37 ± 5.6 ng/mL (≈ 0.0711 µM); IC50 [5]: 7.5 ± 0.3 ng/mL (≈ 0.0144 µM); IC50 (K562): 10 ± 0.2 ng/mL (≈ 0.0192 µM); Antiproliferative Activity (IC50, ng/ml) (BV173): No effect; Antiproliferative Activity (IC50, ng/ml) (DHL-6): No effect; Antiproliferative Activity (IC50, ng/ml) (U937): No effect

Q: Which results are given for `COC(=O)[C@@]12OC[C@]34[C@H]([C@@H](O)[C@@H]1O)[C@@]1(C)CC(=O)C(O)=C(C)[C@@H]1C[C@H]3OC(=O)[C@H](OC(=O)/C=C(\C)C(C)C)[C@@H]24` [compound 2, bruceantin]?
A: c-Myc oncoprotein, percentage of control (c-Myc oncoprotein, BV173; Bruceantin (10 ng/ml), 4 h): 28%; c-Myc oncoprotein, percentage of control (c-Myc oncoprotein, BV173; Bruceantin (10 ng/ml), 24 h): 12%; c-Myc oncoprotein, percentage of control (c-Myc oncoprotein, U937; Bruceantin (10 ng/ml), 4 h): 40%; c-Myc oncoprotein, percentage of control (c-Myc oncoprotein, U937; Bruceantin (10 ng/ml), 24 h): 44%; c-Myc oncoprotein, percentage of control ([1]; Bruceantin (10 ng/ml), 4 h): 42%; c-Myc oncoprotein, percentage of control ([1]; Bruceantin (10 ng/ml), 24 h): 63%; c-Myc oncoprotein, percentage of control ([2]; Bruceantin (10 ng/ml), 4 h): 70%; c-Myc oncoprotein, percentage of control ([2]; Bruceantin (10 ng/ml), 24 h): 87%; c-Myc oncoprotein, percentage of control (c-Myc oncoprotein, Reh; Bruceantin (10 ng/ml), 4 h): 44%; c-Myc oncoprotein, percentage of control (c-Myc oncoprotein, Reh; Bruceantin (10 ng/ml), 24 h): 40%; c-Myc oncoprotein, percentage of control ([3]; RS4;11, Bruceantin (10 ng/ml), 4 h): 140%; c-Myc oncoprotein, percentage of control ([3]; RS4;11, Bruceantin (10 ng/ml), 24 h): 6%; c-Myc oncoprotein, percentage of control (c-Myc oncoprotein, NB4; Bruceantin (10 ng/ml), 4 h): 0%; c-Myc oncoprotein, percentage of control (c-Myc oncoprotein, NB4; Bruceantin (10 ng/ml), 24 h): 0%; c-Myc oncoprotein, percentage of control (c-Myc oncoprotein, Daudi; Bruceantin (10 ng/ml), 4 h): 67%; c-Myc oncoprotein, percentage of control (c-Myc oncoprotein, Daudi; Bruceantin (10 ng/ml), 24 h): 2%; c-Myc oncoprotein, percentage of control (c-Myc oncoprotein, K562; Bruceantin (10 ng/ml), 4 h): 2%; c-Myc oncoprotein, percentage of control (c-Myc oncoprotein, K562; Bruceantin (10 ng/ml), 24 h): 12%; inhibition at 2 µM [4]: 70%; IC50 (Kasumi-1): 3.2 ± 0.1 ng/mL (≈ 0.00583 µM); IC50 (RS4;11): 5.4 ± 0.9 ng/mL (≈ 0.00984 µM); IC50 (SUPB13): 10 ± 0.5 ng/mL (≈ 0.0182 µM); Antiproliferative Activity (IC50, ng/ml) (Daudi): No effect; Antiproliferative Activity (IC50, ng/ml) (NB4): No effect; IC50 (HL-60): 20 ± 0.1 ng/mL (≈ 0.0365 µM); IC50 (Reh): 12.5 ± 0.8 ng/mL (≈ 0.0228 µM); IC50 [5]: 3 ± 0.3 ng/mL (≈ 0.00547 µM); IC50 (K562): 6 ± 0.1 ng/mL (≈ 0.0109 µM); Antiproliferative Activity (IC50, ng/ml) (BV173): No effect; Antiproliferative Activity (IC50, ng/ml) (DHL-6): No effect; Antiproliferative Activity (IC50, ng/ml) (U937): No effect
